Key:
CCRF-CEM = test: NCI-60 SRB screen; assay type: cell-based; settings: Homo sapiens, single dose 10^−5 M, read-out: Growth inhibition (%)
HL-60(TB) = test: NCI-60 SRB screen; assay type: cell-based, human; settings: Homo sapiens; HL-60 (TB); single dose 10^−5 M; read-out: Growth inhibition (%)
K-562 = test: NCI-60 SRB screen; assay type: cell-based, human; settings: Homo sapiens, K562; K-562; single dose 10^−5 M; read-out: Growth inhibition (%)
MOLT-4 = test: NCI-60 SRB screen; assay type: cell-based; settings: Homo sapiens; MOLT-4; single dose 10^−5 M; read-out: Growth inhibition (%)
SR = test: NCI-60 SRB screen; assay type: cell-based; settings: Homo sapiens, single dose 10^−5 M, read-out: Growth inhibition (%)
A549/ATCC = test: NCI-60 SRB screen; assay type: cell-based, human; settings: Homo sapiens, single dose 10^−5 M, read-out: Growth inhibition (%)
EKVX = test: NCI-60 SRB screen; assay type: cell-based, human; settings: Homo sapiens, single dose 10^−5 M, read-out: Growth inhibition (%)
HOP-62 = test: NCI-60 SRB screen; assay type: cell-based, human; settings: Homo sapiens; HOP-62; single dose 10^−5 M; read-out: Growth inhibition (%)
HOP-92 = test: NCI-60 SRB screen; assay type: cell-based, human; settings: Homo sapiens; HOP-92; single dose 10^−5 M; read-out: Growth inhibition (%)
NCI-H226 = test: NCI-60 SRB screen; assay type: cell-based, human; settings: Homo sapiens; NCI-H226; single dose 10^−5 M; read-out: Growth inhibition (%)
NCI-H23 = test: NCI-60 SRB screen; assay type: cell-based, human; settings: Homo sapiens; NCI-H23; single dose 10^−5 M; read-out: Growth inhibition (%)
NCI-H322M = test: NCI-60 SRB screen; assay type: cell-based, human; settings: Homo sapiens, single dose 10^−5 M, read-out: Growth inhibition (%)
NCI-H460 = test: NCI-60 SRB screen; assay type: cell-based, human; settings: Homo sapiens; NCI-H460; single dose 10^−5 M; read-out: Growth inhibition (%)
NCI-H522 = test: NCI-60 SRB screen; assay type: cell-based, human; settings: Homo sapiens; NCI-H522; single dose 10^−5 M; read-out: Growth inhibition (%)
COLO 205 = test: NCI-60 SRB screen; assay type: cell-based, human; settings: Homo sapiens; COLO 205; single dose 10^−5 M; read-out: Growth inhibition (%)
HCC-2998 = test: NCI-60 SRB screen; assay type: cell-based, human; settings: Homo sapiens; HCC-2998; single dose 10^−5 M; read-out: Growth inhibition (%)
HCT-116 = test: NCI-60 SRB screen; assay type: cell-based, human; settings: Homo sapiens; HCT-116; single dose 10^−5 M; read-out: Growth inhibition (%)
HCT-15 = test: NCI-60 SRB screen; assay type: cell-based, human; settings: Homo sapiens; HCT-15; single dose 10^−5 M; read-out: Growth inhibition (%)
HT-29 = test: NCI-60 SRB screen; assay type: cell-based; settings: Homo sapiens; HT-29; single dose 10^−5 M; read-out: Growth inhibition (%)
KM12 = test: NCI-60 SRB screen; assay type: cell-based, human; settings: Homo sapiens; KM12; single dose 10^−5 M; read-out: Growth inhibition (%)
SW-620 = test: NCI-60 SRB screen; assay type: cell-based; settings: Homo sapiens; SW-620; single dose 10^−5 M; read-out: Growth inhibition (%)
SF-268 = test: NCI-60 SRB screen; assay type: cell-based, human; settings: Homo sapiens; SF-268; single dose 10^−5 M; read-out: Growth inhibition (%)
SF-295 = test: NCI-60 SRB screen; assay type: cell-based, human; settings: Homo sapiens; SF-295; single dose 10^−5 M; read-out: Growth inhibition (%)
LOX IMVI = test: NCI-60 SRB screen; assay type: cell-based, human; settings: Homo sapiens, single dose 10^−5 M, read-out: Growth inhibition (%)
MALME-3M = test: NCI-60 SRB screen; assay type: cell-based, human; settings: Homo sapiens, single dose 10^−5 M, read-out: Growth inhibition (%)
M14 = test: NCI-60 SRB screen; assay type: cell-based, human; settings: Homo sapiens; M14; single dose 10^−5 M; read-out: Growth inhibition (%)
MDA-MB-435 = test: NCI-60 SRB screen; assay type: cell-based; settings: Homo sapiens, MDA-MB-435, read-out: Growth inhibition (%)
SK-MEL-2 = test: NCI-60 SRB screen; assay type: cell-based, human; settings: Homo sapiens; SK-MEL-2; single dose 10^−5 M; read-out: Growth inhibition (%)
SK-MEL-28 = test: NCI-60 SRB screen; assay type: cell-based; settings: Homo sapiens; SK-MEL-28; single dose 10^−5 M; read-out: Growth inhibition (%)
SK-MEL-5 = test: NCI-60 SRB screen; assay type: cell-based, human; settings: Homo sapiens; SK-MEL-5; single dose 10^−5 M; read-out: Growth inhibition (%)
UACC-257 = test: NCI-60 SRB screen; assay type: cell-based, human; settings: Homo sapiens, UACC-257; UACC-275 (so in the source); single dose 10^−5 M; read-out: Growth inhibition (%)
UACC-62 = test: NCI-60 SRB screen; assay type: cell-based, human; settings: Homo sapiens; UACC-62; single dose 10^−5 M; read-out: Growth inhibition (%)
IGROV1 = test: NCI-60 SRB screen; assay type: cell-based, human; settings: Homo sapiens, IGROV-1; IGROV1; single dose 10^−5 M; read-out: Growth inhibition (%)
OVCAR-3 = test: NCI-60 SRB screen; assay type: cell-based, human; settings: Homo sapiens; OVCAR-3; single dose 10^−5 M; read-out: Growth inhibition (%)
OVCAR-4 = test: NCI-60 SRB screen; assay type: cell-based, human; settings: Homo sapiens; OVCAR-4; single dose 10^−5 M; read-out: Growth inhibition (%)
NCI/ADR-RES = test: NCI-60 SRB screen; assay type: cell-based, human; settings: Homo sapiens, single dose 10^−5 M, read-out: Growth inhibition (%)
SK-OV-3 = test: NCI-60 SRB screen; assay type: cell-based, human; settings: Homo sapiens; SK-OV-3; single dose 10^−5 M; read-out: Growth inhibition (%)
786-0 = test: NCI-60 SRB screen; assay type: cell-based; settings: Homo sapiens; 786-0; single dose 10^−5 M; read-out: Growth inhibition (%)
ACHN = test: NCI-60 SRB screen; assay type: cell-based; settings: Homo sapiens, single dose 10^−5 M, read-out: Growth inhibition (%)
CAKI-1 = test: NCI-60 SRB screen; assay type: cell-based, human; settings: Homo sapiens; CAKI-1; single dose 10^−5 M; read-out: Growth inhibition (%)
RXF 393 = test: NCI-60 SRB screen; assay type: cell-based, human; settings: Homo sapiens; RXF 393; single dose 10^−5 M; read-out: Growth inhibition (%)
SN12C = test: NCI-60 SRB screen; assay type: cell-based, human; settings: Homo sapiens, SN12C; SN 12 C; single dose 10^−5 M; read-out: Growth inhibition (%)
TK-10 = test: NCI-60 SRB screen; assay type: cell-based, human; settings: Homo sapiens; TK-10; single dose 10^−5 M; read-out: Growth inhibition (%)
UO-31 = test: NCI-60 SRB screen; assay type: cell-based, human; settings: Homo sapiens; UO-31; single dose 10^−5 M; read-out: Growth inhibition (%)
[1] = tested on: panel of 60 cancer cell lines; test: NCI-60 SRB screen, mean or range over the panel; assay type: cell-based, human; settings: Homo sapiens; mean over the cell lines; single dose 10^−5 M; read-out: Mean growth inhibition (%)

COc1ccc(C2NC(=O)C(Cl)c3c2sc2c(F)cccc32)c(OC)c1 (stereo not drawn) [Compound 4a, 4-Chloro-1-(2,4-Dimethoxyphenyl)-8-fluoro-1,2-dihydro[1]benzothieno [2,3-c]pyridine-3(4H)-one]
inhibition at 10 µM (CCRF-CEM): -1.02%
inhibition at 10 µM (HL-60(TB)): 0.73%
inhibition at 10 µM (K-562): 12.5%
inhibition at 10 µM (MOLT-4): 4.69%
inhibition at 10 µM (SR): 36.6%
inhibition at 10 µM (A549/ATCC): -4.25%
inhibition at 10 µM (EKVX): 2.22%
inhibition at 10 µM (HOP-62): 9.42%
inhibition at 10 µM (HOP-92): 9.64%
inhibition at 10 µM (NCI-H226): 13.6%
inhibition at 10 µM (NCI-H23): 1.72%
inhibition at 10 µM (NCI-H322M): -4.72%
inhibition at 10 µM (NCI-H460): -1.09%
inhibition at 10 µM (NCI-H522): 8.58%
inhibition at 10 µM (COLO 205): -16.7%
inhibition at 10 µM (HCC-2998): -7.97%
inhibition at 10 µM (HCT-116): -2.4%
inhibition at 10 µM (HCT-15): -9.27%
inhibition at 10 µM (HT-29): -10.5%
inhibition at 10 µM (KM12): 3.86%
inhibition at 10 µM (SW-620): -0.16%
inhibition at 10 µM (SF-268): 9.64%
inhibition at 10 µM (SF-295): -2.33%
inhibition at 10 µM (LOX IMVI): 4.84%
inhibition at 10 µM (MALME-3M): 9.21%
inhibition at 10 µM (M14): 3.25%
inhibition at 10 µM (MDA-MB-435): 8.55%
inhibition at 10 µM (SK-MEL-2): -23.2%
inhibition at 10 µM (SK-MEL-28): -1.74%
inhibition at 10 µM (SK-MEL-5): -1.74%
inhibition at 10 µM (UACC-257): -12.8%
inhibition at 10 µM (UACC-62): 10.9%
inhibition at 10 µM (IGROV1): 10.3%
inhibition at 10 µM (OVCAR-3): 1.99%
inhibition at 10 µM (OVCAR-4): -1.63%
inhibition at 10 µM (NCI/ADR-RES): -5.94%
inhibition at 10 µM (SK-OV-3): 0.53%
inhibition at 10 µM (786-0): 4.93%
inhibition at 10 µM (ACHN): 12.4%
inhibition at 10 µM (CAKI-1): 27.5%
inhibition at 10 µM (RXF 393): -0.71%
inhibition at 10 µM (SN12C): 9.45%
inhibition at 10 µM (TK-10): -25.5%
inhibition at 10 µM (UO-31): 40.3%
inhibition at 10 µM [1]: 1.85%

COc1ccc(C2NC(=O)C(Cl)c3c2sc2c(F)cccc32)cc1 (stereo not drawn) [Compound 4b, 4-Chloro-8-fluoro-1-(4-methoxyphenyl)-1,2-dihydro[1]benzothieno[2,3-c] pyridine-3(4H)-one]
inhibition at 10 µM (CCRF-CEM): -0.42%
inhibition at 10 µM (HL-60(TB)): -5.26%
inhibition at 10 µM (K-562): 31.3%
inhibition at 10 µM (MOLT-4): 7.88%
inhibition at 10 µM (SR): 39.3%
inhibition at 10 µM (A549/ATCC): 55.5%
inhibition at 10 µM (EKVX): 23%
inhibition at 10 µM (HOP-62): 17.2%
inhibition at 10 µM (HOP-92): 16.4%
inhibition at 10 µM (NCI-H226): 7.14%
inhibition at 10 µM (NCI-H23): 6.41%
inhibition at 10 µM (NCI-H322M): 22%
inhibition at 10 µM (NCI-H460): 31.4%
inhibition at 10 µM (NCI-H522): 21.7%
inhibition at 10 µM (COLO 205): -20.5%
inhibition at 10 µM (HCC-2998): -6.39%
inhibition at 10 µM (HCT-116): 1.62%
inhibition at 10 µM (HCT-15): 14.2%
inhibition at 10 µM (HT-29): -6.98%
inhibition at 10 µM (KM12): 7.6%
inhibition at 10 µM (SW-620): 6.49%
inhibition at 10 µM (SF-268): 14.3%
inhibition at 10 µM (SF-295): 1.82%
inhibition at 10 µM (LOX IMVI): 6.46%
inhibition at 10 µM (MALME-3M): 10.8%
inhibition at 10 µM (M14): 3.86%
inhibition at 10 µM (MDA-MB-435): 33.7%
inhibition at 10 µM (SK-MEL-2): -18.3%
inhibition at 10 µM (SK-MEL-28): -0.07%
inhibition at 10 µM (SK-MEL-5): -0.07%
inhibition at 10 µM (UACC-257): -6.58%
inhibition at 10 µM (UACC-62): 8.74%
inhibition at 10 µM (IGROV1): 4.86%
inhibition at 10 µM (OVCAR-3): 0.61%
inhibition at 10 µM (OVCAR-4): 7.51%
inhibition at 10 µM (NCI/ADR-RES): 9.18%
inhibition at 10 µM (SK-OV-3): -2.04%
inhibition at 10 µM (786-0): -0.46%
inhibition at 10 µM (ACHN): -3.2%
inhibition at 10 µM (CAKI-1): 17.7%
inhibition at 10 µM (RXF 393): 9.68%
inhibition at 10 µM (SN12C): 3.66%
inhibition at 10 µM (TK-10): -38.1%
inhibition at 10 µM (UO-31): 71.7%
inhibition at 10 µM [1]: 8.66%
